Tests used:
[1] = Human HepG2 growth inhibition assay (Cell TitreGlo, 48 h); assay type: cell-based; conditions: human, HepG2 cells, HepG2 cell growth inhibition over 48 h
Experimental: To establish the SAR, synthesized analogs were assessed against the asexual stage parasite (72 h) using LDH as a proxy for parasite growth inhibition. Cytotoxicity was monitored against the human HepG2 cell line using Cell TitreGlo as a metabolic marker for cell growth. Cyt b inhibitors typically have high lipophilicity, and so calculated physicochemical properties were determined, while in vitro ADME was also collected on representative analogs to gauge their suitability for efficacy studies in a 4-day P. berghei model.
Human HepG2 Growth Inhibition Assay. This is a routine assay undertaken at the Walter and Eliza Hall Institute and the method has been previously published. HepG2 cells were cultured in Dulbeccos modified eagles medium (DMEM) supplemented with 10 % fetal calf serum (FCS), in a humidified incubator at 37 °C and 5 % CO2. Assay plates (Greiner #781098, 384 well, white, tissue culture treated) were prepared by transferring appropriate volumes of 10 mM compound stocks using an Echo555 (Labcyte) such that the starting concentration was 50 μM, with a 1:2-fold dilution series. All wells were backfilled with DMSO to […] such that this remained constant (0.5 % DMSO). The positive growth control was 0.5 % DMSO and the negative growth control was 10 μM Bortezomib. HepG2 cells were seeded with 1000 cells in 50 μL DMEM with 10 % FCS into each well of the assay plates using a Multidrop Combi dispenser (Thermo Scientific). Plates were incubated at 37 °C and 5 % CO2 for 48 h. Cytotoxicity was determined using Cell Titer Glo (Promega) and calculated as a percentage using DMSO as the positive growth control and 10 μM Bortezomib as a negative growth control. EC50 values were calculated by Dotmatics 5.3 and Spotfire 7.11.1 software using a nonlinear regression four-parameter fit analysis. The equation used is sigmoidal dose response (variable slope), Y = bottom + (top − bottom)/(1 + 10((logEC50 − X) × Hill Slope)).

[2] = system: P. falciparum 3D7 parasites; experiment: P. falciparum 3D7 asexual stage LDH assay (72 h); assay type: cell-based, Plasmodium falciparum; conditions: for EC50: Plasmodium falciparum, 3D7, 72 h, LDH activity of P. falciparum 3D7 parasites over 72 h, means and SDs, three or more experiments, read-out: Pf 3D7 EC50 (SD)
Experimental: To establish the SAR, synthesized analogs were assessed against the asexual stage parasite (72 h) using LDH as a proxy for parasite growth inhibition. Cytotoxicity was monitored against the human HepG2 cell line using Cell TitreGlo as a metabolic marker for cell growth.
P. falciparum 3D7 Asexual Stage LDH Assay. This is a platform assay is routinely undertaken at the Walter and Eliza Hall Institute and details on the protocol has been previously published. Briefly, 10-point dilution series of the compounds were prepared in 384 well assay plates using an Echo555 (Labcyte). Appropriate volumes of 10 mM compound stocks were transferred into the assay plates such that the starting concentration was 1 μM, with a 1 in 3-fold dilution series. All wells were backfilled with DMSO to 40 nL such that this remained constant (0.1 % DMSO). The positive growth control was 0.1 % DMSO and the negative growth control was 100 nM chloroquine. The parasite inoculum (40 μL) was dispensed into plates containing compounds using a Multidrop Combi dispenser (Thermo Scientific). […] Following 72 h growth, plates were sealed with parafilm and frozen at −80 °C overnight. Plates were thawed at room temperature for at least 4 h prior to LDH activity being measured. […] Plates were shaken to ensure mixing and absorbance at 650 nm was measured in an EnVision (PerkinElmer) plate reader after 30 min of incubation at room temperature. […] The equation used is sigmoidal dose response (variable slope), Y = bottom + (top − bottom)/(1 + 10((logEC50 − X) × Hill Slope)).

SMILES | CC50 at 48 h [1] | EC50 [2] | fold decrease in Pf 3D7 activity relative to 17 ([2]; ratio of EC50 to compound 17)
CC(C)c1cccc(CN(Cc2ccc(C(=O)NC3CC3)cc2)C2CC2)c1 [Compound 54, N-Cyclopropyl-4-((cyclopropyl(3-isopropylbenzyl)amino)methyl)benzamide] | > 40000 nM | 80 nM | 
CC(C)c1ccc(CN(Cc2ccc(C(=O)NC3CC3)cc2)C2CC2)cc1 [Compound 55, N-Cyclopropyl-4-((cyclopropyl(4-isopropylbenzyl)amino)methyl)benzamide] | > 40000 nM | 110 nM | 
CC(C)(C)c1ccc(CN(Cc2ccc(C(=O)NC3CC3)cc2)C2CC2)cc1 [Compound 56] | > 40000 nM | 60 nM | 
COc1ccccc1CN(Cc1ccc(C(=O)NC2CC2)cc1)C1CC1 [Compound 57] | > 40000 nM | 270 nM | 
COc1cccc(CN(Cc2ccc(C(=O)NC3CC3)cc2)C2CC2)c1 [Compound 58] | > 40000 nM | 490 nM | 
COc1ccc(CN(Cc2ccc(C(=O)NC3CC3)cc2)C2CC2)cc1 [Compound 59] | > 40000 nM | 230 nM | 
N#Cc1ccccc1CN(Cc1ccc(C(=O)NC2CC2)cc1)C1CC1 [Compound 60] | > 40000 nM | 120 nM | 
N#Cc1cccc(CN(Cc2ccc(C(=O)NC3CC3)cc2)C2CC2)c1 [Compound 61] | > 40000 nM | 130 nM | 
N#Cc1ccc(CN(Cc2ccc(C(=O)NC3CC3)cc2)C2CC2)cc1 [Compound 62] | > 40000 nM | 630 nM | 
CN(C)c1ccc(CN(Cc2ccc(C(=O)NC3CC3)cc2)C2CC2)cc1 [Compound 63, N-Cyclopropyl-4-((cyclopropyl(4-(dimethylamino)benzyl)amino)methyl)benzamide] | > 40000 nM | 530 nM | 
CN(C)c1cccc(CN(Cc2ccc(C(=O)NC3CC3)cc2)C2CC2)c1 [Compound 64, N-Cyclopropyl-4-((cyclopropyl(3-(dimethylamino)benzyl)amino)methyl)benzamide] | > 40000 nM | 320 nM | 
CC(=O)Nc1ccccc1CN(Cc1ccc(C(=O)NC2CC2)cc1)C1CC1 [Compound 65, 4-(((2-Acetamidobenzyl) (cyclopropyl)amino)methyl)-N-cyclopropylbenzamide] | > 40000 nM | 7400 nM | 
CC(=O)c1cccc(CN(Cc2ccc(C(=O)NC3CC3)cc2)C2CC2)c1 [Compound 68] | > 40000 nM | 110 nM | 
CC(=O)c1ccc(CN(Cc2ccc(C(=O)NC3CC3)cc2)C2CC2)cc1 [Compound 69] | > 40000 nM | 900 nM | 
O=C(NC1CC1)c1ccc(CN(Cc2cccc(CO)c2)C2CC2)cc1 [Compound 70, N-Cyclopropyl-4-((cyclopropyl(3-(hydroxymethyl)benzyl)amino)methyl)benzamide] | > 40000 nM | 1100 nM | 
O=C(NC1CC1)c1ccc(CN(Cc2ccc(CO)cc2)C2CC2)cc1 [Compound 71, N-Cyclopropyl-4-((cyclopropyl(4-(hydroxymethyl)benzyl)amino)methyl)benzamide] | > 40000 nM | 170 nM | 
O=C(NC1CC1)c1ccc(CN(Cc2ccc(F)cc2F)C2CC2)cc1 [Compound 72, N-Cyclopropyl-4-((cyclopropyl(2,4-difluorobenzyl)amino)methyl)benzamide] | > 40000 nM | 230 nM | 
O=C(NC1CC1)c1ccc(CN(Cc2ccc(F)c(F)c2)C2CC2)cc1 [Compound 73] | > 40000 nM | 220 nM | 
O=C(NC1CC1)c1ccc(CN(Cc2cc(F)cc(F)c2)C2CC2)cc1 [Compound 74] | > 40000 nM | 220 nM | 
O=C(NC1CC1)c1ccc(CN(Cc2c(F)cc(F)cc2F)C2CC2)cc1 [Compound 75, N-Cyclopropyl-4-((cyclopropyl(2,4,6-trifluorobenzyl)amino)methyl)benzamide] | > 40000 nM | 190 nM | 

SMILES | CC50 at 48 h [1] | EC50 [2] | fold decrease in Pf 3D7 activity relative to 17 ([2]; ratio of EC50 to compound 17)
O=C(NC1CC1)c1ccc(CN(Cc2ccc(Cl)c(Cl)c2)C2CC2)cc1 [Compound 76] | > 40000 nM | 210 nM | 
O=C(NC1CC1)c1ccc(CN(Cc2cc(Cl)cc(Cl)c2)C2CC2)cc1 [Compound 77] | > 40000 nM | 230 nM | 
O=C(NC1CC1)c1ccc(CN(Cc2c(Cl)cc(Cl)cc2Cl)C2CC2)cc1 [Compound 78, N-Cyclopropyl-4-((cyclopropyl(2,4,6-trichlorobenzyl)amino)methyl)benzamide] | > 40000 nM | 100 nM | 
Cc1ccc(CN(Cc2ccc(C(=O)NC3CC3)cc2)C2CC2)c(C)c1 [Compound 80, N-Cyclopropyl-4-((cyclopropyl(2,4-dimethylbenzyl)amino)methyl)benzamide] | > 40000 nM | 190 nM | 
Cc1cc(C)cc(CN(Cc2ccc(C(=O)NC3CC3)cc2)C2CC2)c1 [Compound 81] | > 40000 nM | 190 nM | 
Cc1cc(C)c(CN(Cc2ccc(C(=O)NC3CC3)cc2)C2CC2)c(C)c1 [Compound 82, N-Cyclopropyl-4-((cyclopropyl(2,4,6-trimethylbenzyl)amino)methyl)benzamide] | > 40000 nM | 80 nM | 
COc1cc(OC)c(CN(Cc2ccc(C(=O)NC3CC3)cc2)C2CC2)c(OC)c1 [Compound 83, N-Cyclopropyl-4-((cyclopropyl(2,4,6-trimethoxybenzyl)amino)methyl)benzamide] | > 40000 nM | 2500 nM | 
O=C(NC1CC1)c1ccc(CN(Cc2cc(C(F)(F)F)cc(C(F)(F)F)c2)C2CC2)cc1 [Compound 84, 4-(((3,5-Bis(trifluoromethyl)benzyl) (cyclopropyl)amino)methyl)-N-cyclopropylbenzamide] | 15000 nM | 100 nM | 
O=C(NC1CC1)c1ccc(CN(Cc2ccccn2)C2CC2)cc1 [Compound 85] | > 40000 nM | 6600 nM | 
O=C(NC1CC1)c1ccc(CN(Cc2ccncc2)C2CC2)cc1 [Compound 87] | > 40000 nM | 9200 nM | 
CCCN(Cc1ccc(C(=O)NC2CC2)cc1)C1CC1 [Compound 90, N-Cyclopropyl-4-((cyclopropyl(propyl)amino)methyl)benzamide] | > 40000 nM | 2500 nM | 
CC(C)N(Cc1ccc(C(=O)NC2CC2)cc1)C1CC1 [Compound 91, N-Cyclopropyl-4-((cyclopropyl(isopropyl)amino)methyl)benzamide] | > 40000 nM | 2600 nM | 
CC(C)(C)CN(Cc1ccc(C(=O)NC2CC2)cc1)C1CC1 [Compound 93] | > 40000 nM | 460 nM | 
O=C(NC1CC1)c1ccc(CN(CC2CCC2)C2CC2)cc1 [Compound 94] | > 40000 nM | 520 nM | 
O=C(NC1CC1)c1ccc(CN(CC2CCCC2)C2CC2)cc1 [Compound 95] | > 40000 nM | 510 nM | 
O=C(NC1CC1)c1ccc(CN(CC2CCCCC2)C2CC2)cc1 [Compound 96] | > 40000 nM | 240 nM | 
CC(c1ccc(C(=O)NC2CC2)cc1)N(Cc1ccccc1)C1CC1 (stereo not drawn) [Compound 98, 4-(1-(Benzyl(cyclopropyl)amino)ethyl)-N-cyclopropylbenzamide] | > 40000 nM | 340 nM | 2 fold
O=C(NC1CC1)c1ccc(CN(C2CC2)S(=O)(=O)c2ccccc2)cc1 [Compound 101] | > 40000 nM | 2300 nM | 
O=C(NC1CC1)c1ccc(S(=O)(=O)N(Cc2ccccc2)C2CC2)cc1 [Compound 102, 4-(N-Benzyl-N-cyclopropylsulfamoyl)-N-cyclopropylbenzamide] | > 40000 nM | 4800 nM | 
O=C(NC1CC1)c1ccc(CN(Cc2ccccc2)C2CC2)cn1 [Compound 103, 5-((Benzyl(cyclopropyl)amino)methyl)-N-cyclopropylpicolinamide] | > 40000 nM | 7600 nM | 

Source: publication PMC11609934, “Exploration and characterization of the antimalarial activity of cyclopropyl carboxamides that target the mitochondrial protein, cytochrome b” (European Journal of Medicinal Chemistry, 2024)
